PubChem BioAssay (NCI)
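Tested at 5 concentrations; 48 h exposure; 96-well plates; endpoints linearly interpolated, else capped at highest concentration. GI50 = concentration required for 50% inhibition of growth. TGI: concentration producing complete growth inhibition.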 Where a SMILES comes first, the peptide text is derived from it. Bridges are numbered along the chain shown (N, C = ends). [ ]: non-standard residue; d: D form. ξ: configuration not given here. ξThr(3R) = C[C@@H](O)C(N)C(=O)O; S5 = C=CCCC[C@](C)(N)C(=O)O

How the values were obtained:
Assay in all cases: growth of human tumour cells (NCI), 48 h
A498 renal = test system: A498 renal
SK-OV-3 ovarian = test system: SK-OV-3 ovarian
LOX IMVI melanoma = test system: LOX IMVI melanoma
HOP-62 NSCLC = test system: HOP-62 NSCLC
A549 NSCLC = test system: A549 NSCLC
NCI/ADR-RES ovarian = test system: NCI/ADR-RES ovarian
OVCAR-5 ovarian = test system: OVCAR-5 ovarian
HT29 colon = test system: HT29 colon
SF-268 CNS = test system: SF-268 CNS
NCI-H23 lung = test system: NCI-H23 lung

SMILES | GI50 (A498 renal) | TGI (A498 renal) | GI50 (SK-OV-3 ovarian) | TGI (SK-OV-3 ovarian) | GI50 (LOX IMVI melanoma) | TGI (LOX IMVI melanoma) | GI50 (HOP-62 NSCLC) | TGI (HOP-62 NSCLC) | GI50 (A549 NSCLC) | TGI (A549 NSCLC) | GI50 (NCI/ADR-RES ovarian) | TGI (NCI/ADR-RES ovarian) | GI50 (OVCAR-5 ovarian) | TGI (OVCAR-5 ovarian) | GI50 (HT29 colon) | TGI (HT29 colon) | GI50 (SF-268 CNS) | TGI (SF-268 CNS) | GI50 (NCI-H23 lung) | TGI (NCI-H23 lung)
CC(=O)N[C@H](C(=O)N[C@@H](CCCNC(=N)N)C(=O)N[C@@H](CCCCN)C(=O)N[C@@H](CCCNC(=N)N)C(=O)NC(C(=O)N[C@@H](CC(C)C)C(=O)N[C@@H](CCCNC(=N)N)C(=O)N[C@@]1(C)CCC/C=C\CCC[C@@](C)(C(=O)N[C@@H](CCCNC(=N)N)C(=O)N[C@@H](CCC(=O)O)C(=O)N[C@@H](CC(C)C)C(=O)N[C@H](C(=O)N[C@@H](CCC(=O)O)C(N)=O)C(C)C)NC(=O)[C@H](CCC(N)=O)NC(=O)[C@H](CC(C)C)NC(=O)[C@H](CC(C)C)NC1=O)[C@@H](C)O)C(C)C (stereo partly drawn) (Ac-VRKR[ξThr(3R)]LR[S5]LLQ[S5]RELVE-NH2; staple (Z) 8-12) | 8.69 µM | 18.4 µM | 5.55 µM | 14.9 µM | 8.64 µM | 18.8 µM | 3.24 µM | 11.8 µM | 6.42 µM | 14.3 µM | 7.9 µM | 16.7 µM | 8.96 µM | 18.1 µM | 7.56 µM | 16.4 µM | 2.1 µM | 8.62 µM | 5.26 µM | 13.3 µM
COc1cc(/C=C/C(=O)N2CCC=CC2=O)cc(OC)c1OC | 14.9 µM | 29.4 µM | 13.8 µM | 27.3 µM | 2.09 µM | 5.13 µM | 6.93 µM | 22.2 µM | 8.57 µM | 22.8 µM | 3.41 µM | 47.9 µM | 2.77 µM | 8.68 µM | 2.98 µM | 9.08 µM | 3.2 µM | 12.6 µM | 1.81 µM | 4.03 µM
